Data published in patent US20200188475A1, “REAGENTS FOR INDUCING AN IMMUNE RESPONSE” (Dana-Farber Cancer Institute, Inc., priority 2007, published 2020).
Ends that are not written are not given here. * marks the point of attachment. R1 = nitroxide spin-labeled side chain, CC1(C)C=C(CS*)C(C)(C)N1[O]

How the values were obtained:
[1] = Aqueous solubility of the MPER segment; assay type: physicochemical
[2] = Stability of MPER adsorption to lipid-enveloped PLGA microparticles in serum-containing medium (confocal imaging); assay type: physicochemical; details: culture medium containing 10% FCS in the presence of DCs, FITC-tagged MPER, qualitative; preliminary studies
liposomes = test: MPER binding to liposomes as a function of membrane composition; details: liposomes of DMPC, 4:1 DOPC:DOPG or HIV membrane-mimicking composition; preliminary studies
4E10 antibody = test: SPR (BIAcore) 4E10 binding to MPER variant or spin-labeled peptides on liposomes; details: for 4E10 antibody binding to the spin-labeled MPER peptide: membrane-bound spin-labeled peptides, POPC/POPG liposomes; for decrease of 4E10 binding to the lipid-embedded MPER: mutation of N671 to residues occurring in other viral strains
[3] = target: MPER segment 662-683 of HXB2 strain HIV-1 gp160 (HIV-1 (HXB2 strain)); test: SPR, intact IgG over membrane-bound MPER, global fit with a two-step conformational change model
[4] = target: MPER segment 662-683 of HXB2 strain HIV-1 gp160 (HIV-1 (HXB2 strain)); test: ITC at 25 °C, MPER peptide with virion membrane-like liposomes injected into 4E10 Fab

Substance | 4E10 antibody binding to the spin-labeled MPER peptide (4E10 antibody) | decrease of 4E10 binding to the lipid-embedded MPER (4E10 antibody) | other results
ELDKWASLWNWFNITNWLWYIK [MPER] |  |  | solubility in aqueous solutions [1]: can only be solubilized in aqueous solutions in the presence of detergents or lipid vesicles; stability of MPER adsorption [2]: stably adsorbed to lipid-enveloped PLGA microparticles for at least a few hours; order of MPER binding affinity by liposome composition (liposomes): DMPC<DOPC/DOPG<HIV mimic
W672: MPER 662-683 peptide with cysteine substitution and nitroxide spin label R1 at position W672 (ELDKWASLWNC(R1)FNITNWLWYIK) | completely abolished |  | 
N671S: HXB2 MPER single amino acid variant, N671 to S (ELDKWASLWSWFNITNWLWYIK) |  | moderately | 
N671T: HXB2 MPER single amino acid variant, N671 to T (ELDKWASLWTWFNITNWLWYIK) |  | severely | 
T676: MPER 662-683 peptide with cysteine substitution and nitroxide spin label R1 at position T676 (ELDKWASLWNWFNIC(R1)NWLWYIK) | completely abolished |  | 
N671G: HXB2 MPER single amino acid variant, N671 to G (ELDKWASLWGWFNITNWLWYIK) |  | severely | 
4E10 broadly neutralizing anti-gp41 antibody (intact IgG) |  |  | Kd [3]: 10 nM
F673: MPER 662-683 peptide with cysteine substitution and nitroxide spin label R1 at position F673 (ELDKWASLWNWC(R1)NITNWLWYIK) | completely abolished |  | 
4E10 antigen-binding fragment (Fab) |  |  | Kd [4]: 1000 nM; enthalpy change [4]: -25 kcal/mol; entropic energy change (-TDS) [4]: 16.9 kcal/mol
N671D: HXB2 MPER single amino acid variant, N671 to D (ELDKWASLWDWFNITNWLWYIK) |  | severely | 
